Test results from US9290511B2, “Thieno-pyrimidines, useful as potassium channel inhibitors” (XENTION LIMITED, priority 2011, dated 2016).

The compounds below were run against T1, Kir3.1/3.4 (Rattus norvegicus, UniProt P48548+P63251) (assay: Kir3.1/3.4 Q-patch Method (automated patch clamp, Sophion Q-patch)). Conditions: HEK293 cells stably-expressing Kir3.1/3.4; current at -120 mV; QPatch-16 or QPatch-48.
T1 construct: expressed in transfected cells
T1 sequence (P63251 1-501): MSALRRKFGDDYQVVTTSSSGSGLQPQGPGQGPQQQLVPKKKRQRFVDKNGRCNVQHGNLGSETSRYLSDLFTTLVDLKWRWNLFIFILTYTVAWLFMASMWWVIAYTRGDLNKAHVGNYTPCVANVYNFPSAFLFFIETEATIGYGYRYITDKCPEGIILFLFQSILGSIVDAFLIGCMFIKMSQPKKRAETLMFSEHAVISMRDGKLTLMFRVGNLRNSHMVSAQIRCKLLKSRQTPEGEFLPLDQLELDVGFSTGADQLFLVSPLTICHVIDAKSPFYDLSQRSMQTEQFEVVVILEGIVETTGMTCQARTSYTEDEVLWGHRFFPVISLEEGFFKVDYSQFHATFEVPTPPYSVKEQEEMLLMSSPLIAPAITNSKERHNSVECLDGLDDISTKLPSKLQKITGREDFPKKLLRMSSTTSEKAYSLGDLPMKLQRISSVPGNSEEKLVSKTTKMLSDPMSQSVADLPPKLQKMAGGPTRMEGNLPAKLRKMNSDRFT
T1 sequence (P48548 1-419): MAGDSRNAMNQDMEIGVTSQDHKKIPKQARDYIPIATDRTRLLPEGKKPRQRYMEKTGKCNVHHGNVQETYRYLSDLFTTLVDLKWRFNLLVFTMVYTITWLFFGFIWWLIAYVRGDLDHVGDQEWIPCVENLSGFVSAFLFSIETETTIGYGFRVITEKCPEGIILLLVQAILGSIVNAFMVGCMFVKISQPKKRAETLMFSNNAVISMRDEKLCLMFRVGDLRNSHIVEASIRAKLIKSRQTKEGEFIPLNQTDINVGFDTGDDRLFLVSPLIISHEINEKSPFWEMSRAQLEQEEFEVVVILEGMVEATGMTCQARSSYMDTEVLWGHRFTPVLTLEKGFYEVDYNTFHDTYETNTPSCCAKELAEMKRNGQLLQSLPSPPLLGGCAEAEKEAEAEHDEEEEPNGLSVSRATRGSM
Format: cell-based
Procedure: For automated patch-clamp studies using the Sophion Q-patch, accumulative concentration-responses experiments were conducted to determine compound activity against the ion channel target. Voltage-clamp experiments were performed using HEK293 cells stably-expressing Kir3.1/3.4 using either a QPatch-16 or QPatch-48 (Sophion Bioscience A/S). A voltage waveform (VHold−20 mV, step to 60 mV for 100 ms, ramp to −120 mV over 500 ms, hold at −120 mV for 100 ms before returning to VHold) was repeatedly applied to the cells under voltage-clamp at a frequency of 0.1 Hz to elicit Kir3.1/3.4 currents. Mean current at −120 mV was measured in the absence (Icontrol) and presence of drug (IDrug). Assessment of passive leak was performed by removal of external potassium (IZero). Leak current was subtracted from control and drug recordings. Current inhibition (%) was calculated as {1−[(IDrug−IZero)/(IControl−IZero)]}*100. Data were fitted with a sigmoidal function to yield an IC50 and Hill coefficient. Composition of external experimental buffer was (in mM): 40 NaCl, 100 KCl, 5 CaCl2, 1 MgCl2, 10 HEPES pH 7.4. Composition of internal solution was (in mM). 40 K-gluconate, 60 KF, 20 NaCl, 5 Mg-ATP, 0.9 GTPgS, 20 EGTA, pH 7.2. Compounds were formulated in DMSO and diluted in buffer to give a final drug concentration of between […] and a final DMSO concentration of 0.1-0.3%.

| SMILES | IC50 |
| --- | --- |
| COc1ccccc1-c1csc2nc(N3C4CCC3CC(CO)C4)nc(N3C4CCC3CC(OC)C4)c12 (stereo not drawn) [Example 371, [8-[4-(3-methoxy-8-azabicyclo[3.2.1]octan-8-yl)-5-(2-methoxyphenyl)thieno[2,3-d]pyrimidin-2-yl]-8-azabicyclo[3.2.1]octan-3-yl]methanol] | 500 to 3000 nM |
| COCC1CC2CCC(C1)N2c1nc(N2C3CCC2CC(O)C3)nc2scc(-c3ccccc3OC)c12 (stereo not drawn) [Example 372, 8-[4-[3-(methoxymethyl)-8-azabicyclo[3.2.1]octan-8-yl]-5-(2-methoxyphenyl)thieno[2,3-d]pyrimidin-2-yl]-8-azabicyclo[3.2.1]octan-3-ol] | < 500 nM |
| COC1CC2CCC(C1)N2c1nc(N2CCCC(C(N)=O)C2)nc2scc(-c3ccccc3Cl)c12 (stereo not drawn) [Example 373, 1-[5-(2-chlorophenyl)-4-(3-methoxy-8-azabicyclo[3.2.1]octan-8-yl)thieno[2,3-d]pyrimidin-2-yl]piperidine-3-carboxamide] | < 500 nM |
| COC1CC2CCC(C1)N2c1nc(N2CCCC(C(N)=O)C2)c2c(-c3ccccc3Cl)csc2n1 (stereo not drawn) [Example 374, 1-[5-(2-chlorophenyl)-2-(3-methoxy-8-azabicyclo[3.2.1]octan-8-yl)thieno[2,3-d]pyrimidin-4-yl]piperidine-3-carboxamide] | < 500 nM |
| COC1CC2CCC(C1)N2c1nc(N2C3CCC2CC(O)C3)nc2scc(-c3ccccc3Cl)c12 (stereo not drawn) [Example 375, 8-[5-(2-chlorophenyl)-4-(3-methoxy-8-azabicyclo[3.2.1]octan-8-yl)thieno[2,3-d]pyrimidin-2-yl]-8-azabicyclo[3.2.1]octan-3-ol] | 500 to 3000 nM |
| COCC1CC2CCC(C1)N2c1nc(N2CCC(C(N)=O)C2)nc2scc(-c3ccccc3OC)c12 (stereo not drawn) [Example 376, 1-[4-[3-(methoxymethyl)-8-azabicyclo[3.2.1]octan-8-yl]-5-(2-methoxyphenyl)thieno[2,3-d]pyrimidin-2-yl]pyrrolidine-3-carboxamide] | 500 to 3000 nM |
| COc1ccccc1-c1csc2nc(N3C4CCC3CC(O)C4)nc(N3C4CCC3CC(OC)C4)c12 (stereo not drawn) [Example 377, 8-[4-(3-methoxy-8-azabicyclo[3.2.1]octan-8-yl)-5-(2-methoxyphenyl)thieno[2,3-d]pyrimidin-2-yl]-8-azabicyclo[3.2.1]octan-3-ol] | 500 to 3000 nM |
| COCC1CC2CCC(C1)N2c1nc(N2CCNC(=O)C2)nc2scc(-c3ccccc3OC)c12 (stereo not drawn) [Example 378, 4-[4-[3-(methoxymethyl)-8-azabicyclo[3.2.1]octan-8-yl]-5-(2-methoxyphenyl)thieno[2,3-d]pyrimidin-2-yl]piperazin-2-one] | 500 to 3000 nM |
| COc1ccccc1-c1csc2nc(N3C4CCC3COC4)nc(N3C4CCC3CC(OC)C4)c12 (stereo not drawn) [Example 379, 8-[4-(3-methoxy-8-azabicyclo[3.2.1]octan-8-yl)-5-(2-methoxyphenyl)thieno[2,3-d]pyrimidin-2-yl]-3-oxa-8-azabicyclo[3.2.1]octane] | 500 to 3000 nM |
| COc1ccccc1-c1csc2nc(N3CCNC(=O)C3)nc(N3C4CCC3CC(OC)C4)c12 (stereo not drawn) [Example 380, 4-[4-(3-methoxy-8-azabicyclo[3.2.1]octan-8-yl)-5-(2-methoxyphenyl)thieno[2,3-d]pyrimidin-2-yl]piperazin-2-one] | < 500 nM |
| COc1ccccc1-c1csc2nc(N3CCCC(C(N)=O)C3)nc(N3C4CCC3CC(OC)C4)c12 (stereo not drawn) [Example 390, 1-[4-(3-methoxy-8-azabicyclo[3.2.1]octan-8-yl)-5-(2-methoxyphenyl)thieno[2,3-d]pyrimidin-2-yl]piperidine-3-carboxamide] | 500 to 3000 nM |
| COC1CC2CCC(C1)N2c1nc(N2CCNC(=O)C2)nc2scc(-c3ccccc3Cl)c12 (stereo not drawn) [Example 391, 4-[5-(2-chlorophenyl)-4-(3-methoxy-8-azabicyclo[3.2.1]octan-8-yl)thieno[2,3-d]pyrimidin-2-yl]piperazin-2-one] | 500 to 3000 nM |
| COC1CC2CCC(C1)N2c1nc(N2CCNC(C(N)=O)C2)nc2scc(-c3ccccc3Cl)c12 (stereo not drawn) [Example 392, 4-[5-(2-chlorophenyl)-4-(3-methoxy-8-azabicyclo[3.2.1]octan-8-yl)thieno[2,3-d]pyrimidin-2-yl]piperazine-2-carboxamide] | < 500 nM |
| NC(=O)C1CCCN(c2nc(N3C4CCC3CC(CO)C4)nc3scc(-c4ccccc4Cl)c23)C1 (stereo not drawn) [Example 393, 1-[5-(2-chlorophenyl)-2-[3-(hydroxymethyl)-8-azabicyclo[3.2.1]octan-8-yl]thieno[2,3-d]pyrimidin-4-yl]piperidine-3-carboxamide] | < 500 nM |
| COc1ccccc1-c1csc2nc(N3CCNC(C(N)=O)C3)nc(N3C4CCC3CC(OC)C4)c12 (stereo not drawn) [Example 394, 4-[4-(3-methoxy-8-azabicyclo[3.2.1]octan-8-yl)-5-(2-methoxyphenyl)thieno[2,3-d]pyrimidin-2-yl]piperazine-2-carboxamide] | < 500 nM |
| COCC1CC2CCC(C1)N2c1nc(N2C3CCC2COC3)c2c(-c3ccccc3OC)csc2n1 (stereo not drawn) [Example 395, 8-[2-[3-(methoxymethyl)-8-azabicyclo[3.2.1]octan-8-yl]-5-(2-methoxyphenyl)thieno[2,3-d]pyrimidin-4-yl]-3-oxa-8-azabicyclo[3.2.1]octane] | 500 to 3000 nM |
| COc1ccccc1-c1csc2nc(N3CCC(C(N)=O)C3)nc(N3C4CCC3CC(OC)C4)c12 (stereo not drawn) [Example 396, 1-[4-(3-methoxy-8-azabicyclo[3.2.1]octan-8-yl)-5-(2-methoxyphenyl)thieno[2,3-d]pyrimidin-2-yl]pyrrolidine-3-carboxamide] | < 500 nM |
| COc1ccccc1-c1csc2nc(N3C4CCC3CC(OC)C4)nc(N3C4CCC3COC4)c12 (stereo not drawn) [Example 397, 8-[2-(3-methoxy-8-azabicyclo[3.2.1]octan-8-yl)-5-(2-methoxyphenyl)thieno[2,3-d]pyrimidin-4-yl]-3-oxa-8-azabicyclo[3.2.1]octane] | < 500 nM |
| COc1ccccc1-c1csc2nc(N3CCNC(C(N)=O)C3)nc(N3C4CCC3COC4)c12 (stereo not drawn) [Example 398, 4-[5-(2-methoxyphenyl)-4-(3-oxa-8-azabicyclo[3.2.1]octan-8-yl)thieno[2,3-d]pyrimidin-2-yl]piperazine-2-carboxamide] | < 500 nM |
| COc1ccccc1-c1csc2nc(N3CCCC(C(N)=O)C3)nc(N3C4CCC3COC4)c12 (stereo not drawn) [Example 399, 1-[5-(2-methoxyphenyl)-4-(3-oxa-8-azabicyclo[3.2.1]octan-8-yl)thieno[2,3-d]pyrimidin-2-yl]piperidine-3-carboxamide] | 500 to 3000 nM |
| COc1ccccc1-c1csc2nc(N3C4CCC3CC(O)C4)nc(N3C4CCC3COC4)c12 (stereo not drawn) [Example 400, 8-[5-(2-methoxyphenyl)-4-(3-oxa-8-azabicyclo[3.2.1]octan-8-yl)thieno[2,3-d]pyrimidin-2-yl]-8-azabicyclo[3.2.1]octan-3-ol] | 500 to 3000 nM |
| COc1ccccc1-c1csc2nc(N3CCC(C(N)=O)C3)nc(N3C4CCC3COC4)c12 (stereo not drawn) [Example 401, 1-[5-(2-methoxyphenyl)-4-(3-oxa-8-azabicyclo[3.2.1]octan-8-yl)thieno[2,3-d]pyrimidin-2-yl]pyrrolidine-3-carboxamide] | 500 to 3000 nM |
| COc1ccccc1-c1csc2nc(N3C4CCC3COC4)nc(N3C4CCC3COC4)c12 [Example 402, 8-[5-(2-methoxyphenyl)-2-(3-oxa-8-azabicyclo[3.2.1]octan-8-yl)thieno[2,3-d]pyrimidin-4-yl]-3-oxa-8-azabicyclo[3.2.1]octane] | 500 to 3000 nM |
| COc1ccccc1-c1csc2nc(N3CCNC(=O)C3)nc(N3C4CCC3COC4)c12 [Example 403, 4-[5-(2-methoxyphenyl)-4-(3-oxa-8-azabicyclo[3.2.1]octan-8-yl)thieno[2,3-d]pyrimidin-2-yl]piperazin-2-one] | < 500 nM |
